US9428753B2, “Use of LXR antagonists for treatment of side effects of elevated glucocorticoid levels” (The Governing Council of the University of Toronto, priority 2013, dated 2016)
Entries after “also recorded” stand apart in the source; their conditions may differ. Read-outs that look alike come from different tables or passages of the source.

What was measured:
LXRβ = target: T1, LXRβ (Homo sapiens, UniProt P55055); experiment: GAL4-LXRβ / UAS-luc transfection assay in mouse primary hepatocytes
T1 sequence (P55055 222-460 limits assumed): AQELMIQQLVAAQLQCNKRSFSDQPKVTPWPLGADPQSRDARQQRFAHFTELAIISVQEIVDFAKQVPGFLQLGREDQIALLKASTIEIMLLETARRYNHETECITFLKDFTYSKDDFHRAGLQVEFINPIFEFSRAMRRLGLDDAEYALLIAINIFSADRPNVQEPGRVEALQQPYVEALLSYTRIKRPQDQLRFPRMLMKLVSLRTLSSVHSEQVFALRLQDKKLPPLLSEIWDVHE
Text: (§1) RLU=relative luciferase units.

IL-6 = IL-6 gene expression in LPS activated mouse primary macrophages (RT-QPCR); assay type: cell-based
Protocol: The expression of genes involved in immune response IL-1β, IL-6 and GILZ was measured following an overnight treatment with Dex 100 nM, 250 nM T0901317 (T09), and/or 10 μM GSK2033 in LPS activated WT, LXR α −/− and LXRβ −/− mouse primary macrophages, by RT-QPCR. Data represent the Avg±SD, N=3. *P<0.05 by One way ANOVA, Student Newman Keuls.
To assess the ability of GSK2033 to affect GR-mediated inflammatory suppression, a number of gene expression studies were conducted on primary macrophages isolated from WT, LXRα−/− and LXRβ−/− mice. Cells were pre-treated with 10 ng/ml lipopolysaccharide (LPS) for 6 hrs (to induce a potent inflammatory response) followed by treatment of 100 nM Dex, 10 μM GSK2033 and/or 250 nM T09 for 18 hrs.

LXRα−/− mice = experiment: In vivo 5 day Dex ± GSK2033 co-treatment study; parameters: species or system mouse
Protocol: LXRα−/− mice were treated with Vehicle (Veh), Dex (2.5 mg/kg) b.i.d. or GSK2033 40 mg/kg (once a day) along with Dex b.i.d. for 5 days. (A) Plasma glucose levels were measured by a colorimetric kit (Wako). (B) Spleen weights were measured at the time of sacrifice, and are presented normalized to body weight. (C) Liver Pepck, FOXO1, Pgc 1α, FGF21, GR and LXRβ gene expression measured by QPCR. Data represent the Avg±SEM, N=2-5. *P<0.05 by One way ANOVA, Student Newman Keuls.
Having observed promising results with GSK2033 co-treatment with Dex in-vitro (GSK2033-mediated suppression of GC-induced gluconeogenic side effects without affecting desirable immune suppression); a study was conducted, in which whole body LXRα−/− mice were treated with vehicle (Veh), 2.5 mg/kg bid (subcutaneous injection) Dex or Dex+40 mg/kg GSK2033 (once a day intraperitoneal injection) for 5 days, and sacrificed at lights on.

G6Pc = G6Pc gene expression in mouse primary hepatocytes; conditions: LXRα−/− hepatocytes
Protocol: For the gene expression studies, the isolated hepatocytes were cultured at least 24 hrs prior to treatment with 10 μM Cortisol, 10 μM Triamcinolone acetonide, 10 μM Prednisone, and 100 nM Dex all±10 μM GSK2033 overnight, and then harvested to isolate mRNA.

LXRα = target: T2, LXRα (Homo sapiens, UniProt Q13133); experiment: GAL4-LXRα / UAS-luc co-transfection reporter assay in HEK293 cells; assay type: cell-based; parameters: co-transfecting UAS-reporter and GAL4-LBD of the nuclear receptors LXRα, LXRβ and GR; GAL4 (fusion partner); expressed in transfected cells; host or cells: HEK293 cells; mouse primary hepatocytes
T2 sequence (Q13133 209-447 limits assumed): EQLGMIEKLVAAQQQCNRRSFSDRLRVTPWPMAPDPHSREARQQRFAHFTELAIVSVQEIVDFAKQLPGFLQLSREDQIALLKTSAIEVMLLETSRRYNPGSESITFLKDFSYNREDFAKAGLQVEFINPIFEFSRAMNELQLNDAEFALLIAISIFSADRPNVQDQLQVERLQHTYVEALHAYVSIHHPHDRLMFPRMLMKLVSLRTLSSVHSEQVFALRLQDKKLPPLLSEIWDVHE
Protocol: as §1, §1
(§2) Further experiments were then carried out to determine the inhibitory potencies for the individual LXR isoforms in HEK 293 cells by co-transfecting UAS-reporter and GAL4-LBD of the nuclear receptors LXRα, LXRβ and GR and then treating with 8 different concentrations of GSK2033. To assess suppression of ligand activated receptors, the transfected cells were co-treated with increasing doses of GSK2033, in addition to T09091317 or Dex (dexamethasone) (at EC80 of LXR isoforms and GR, respectively).
(§3) A number of experiments were carried out to determine the relative inhibitory potencies of GSK2033, Amgen 54 and DMHCl for the individual LXR isoforms in HEK 293 cells by co-transfecting UAS-reporter and GAL4-LBD of the nuclear receptors LXRα, LXRβ and GR and then treating with 6 different concentrations of GSK2033, Amgen 54 and DMHCl. To assess suppression of ligand activated receptors, the transfected cells were co-treated with increasing doses of GSK2033, Amgen 54 and DMHCl, in addition to T09091317 or Dex (at EC80 of LXR isoforms and GR, respectively).

GR = target: T3, GR (Homo sapiens, UniProt P04150); experiment: GAL4-GR / UAS-luc co-transfection reporter assay in HEK293 cells; assay type: cell-based; parameters: co-transfecting UAS-reporter and GAL4-LBD of the nuclear receptors LXRα, LXRβ and GR; GAL4 (fusion partner); expressed in transfected cells; host or cells: HEK293 cells; mouse primary hepatocytes
T3 sequence (P04150 524-758 limits assumed): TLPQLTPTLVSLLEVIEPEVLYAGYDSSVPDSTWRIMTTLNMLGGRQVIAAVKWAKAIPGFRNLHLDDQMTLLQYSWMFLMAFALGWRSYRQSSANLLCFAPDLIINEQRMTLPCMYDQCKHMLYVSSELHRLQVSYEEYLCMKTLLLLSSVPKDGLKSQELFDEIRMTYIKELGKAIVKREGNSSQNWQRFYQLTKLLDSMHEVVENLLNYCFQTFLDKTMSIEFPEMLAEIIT
Protocol: as §1, §1, §2, §3

[1] = across the treatment groups (Veh, Dex, Dex+GSK2033)

With `Cc1cc(C)c(S(=O)(=O)N(Cc2ccc(-c3cccc(S(C)(=O)=O)c3)cc2)Cc2ccc(C(F)(F)F)o2)c(C)c1` [GSK2033, 2,4,6-trimethyl-N-((3′-(methylsulfonyl)-[1,1′-biphenyl]-4-yl)methyl)-N-((5-(trifluoromethyl)furan-2-yl)methyl)benzenesulfonamide] the IC50 (LXRβ) was 292 nM, the “right-shift of LXRβ IC50, primary hepatocytes vs HEK293” value (LXRβ) was about 10 fold and the “selectivity for LXRβ vs. LXRα” value (LXRβ; in hepatocytes) was 2.5 fold. For the same molecule, the “T09 mediated suppression of IL-6 under GSK2033 co-treatment” value (IL-6; LPS activated macrophages, 250 nM T09 + 10 μM GSK2033) was “antagonized”, the “Dex-mediated IL-6 repression under GSK2033 co-treatment” value (IL-6; WT, LXRα−/− and LXRβ−/− macrophages, LPS 10 ng/ml 6 hrs, 100 nM Dex + 10 μM GSK2033, 18 hrs) was “unaffected” and the “spleen size (weight normalized to body weight)” value (LXRα−/− mice; Dex 2.5 mg/kg bid + GSK2033 40 mg/kg, 5 days, vs Veh) was “significantly smaller”. The “liver FOXO 1 gene induction” value (LXRα−/− mice; Dex+GSK2033 group) was “normalized”, the “liver Pepck gene induction” value (LXRα−/− mice; Dex+GSK2033 group) was “normalized” and the “liver GR gene expression” value (LXRα−/− mice; [1]) was “did not change”. For the same molecule, the “liver LXR gene expression” value (LXRα−/− mice; [1]) was “did not change”, the G6Pc expression (G6Pc; Example 6, 100 nM Dex + 10 μM GSK2033) was 4.9 fold and the G6Pc expression (G6Pc; Example 6, 10 μM Cortisol + 10 μM GSK2033) was 7.5 fold. The G6Pc expression (G6Pc; Example 6, 10 μM Prednisone + 10 μM GSK2033) was 9.8 fold, the G6Pc expression (G6Pc; Example 6, 10 μM Triamcinolone acetonide + 10 μM GSK2033) was 8.6 fold and the G6Pc expression (G6Pc; Example 8, 100 nM Dex + 10 μM LXR antagonist) was 5.3 fold. For the same molecule, the IC50 (LXRα; Example 1, T0901317 at EC80 (250 nM), 8 concentrations, read-out: IC50 against LXRα) was 79 nM, the IC50 (LXRα; Example 7, T0901317 250 nM, 6 concentrations, read-out: IC50 to inhibit LXRα) was 22 nM and the “basal repression of LXRα” value (LXRα; preliminary experiment, 3 doses) was “basal repression”. The “Dex induced GR activity” value (GR; Example 1, GAL4-GR activated with 100 nM Dex) was “unaffected; also recorded: did not antagonize” and the “Dex induced GR activity” value (GR; Example 7, 100 nM Dex) was “unaffected; also recorded: did not antagonize”.
